Several values for one entry are separate records, joined by “and”; a condition that tells them apart may be missing. Equal values may be shown once.
Test system: Plasmodium falciparum
Experiment: GSK_TCMDC: Inhibition of Plasmodium falciparum 3D7 in whole erythrocytes, using parasite LDH activity as an index of growth.
Format: functional, organism-based

Row | SMILES | XC50 (Plasmodium falciparum, 3D7) | XC50
1 | CCCCCCN1CCN(Cc2cccc(NC(=O)c3cc4ccccc4o3)c2)CC1 | 0.909 µM | 
2 | O=C(NCCCCN1CCCC2c3cccc(O)c3CCC21)c1ccc(-c2ccccc2)cc1 (stereo not given) | 1.17 µM | 
3 | CC(=O)Nc1ccc(COc2ccc(Nc3ccnc4cc(-c5ccccn5)ccc34)cc2)cc1 | 0.196 µM | 
4 | CCCc1ccc(C(=O)N2C(c3nccs3)C(C(N)=O)CC2(CC(C)C)C(=O)O)cc1 (stereo not given) | 0.156 µM | 
5 | O=c1cc(NCCCNCc2cc(C(F)(F)F)ccc2F)[nH]c2ccccc12 | 0.829 µM | 
6 | COc1ccc(C=Cc2cc(=N)c3ccccc3[nH]2)cc1 | 0.969 µM | 
7 | CCCNCc1ccc(-c2ccc(CN(CCOC)C(=O)[C@H]3CCCO3)cc2)nc1 | 0.745 µM | 
8 | Cc1cc(NCCc2ccccc2)nc(NC(=N)Nc2cccc(F)c2)n1 | 0.899 µM | 
9 | CN(C)CCN(C)Cc1ccc(-c2ccc(NC(=O)c3cccc(C#N)c3)cc2)cc1 | 1.27 µM | 
10 | O=C(Nc1cccc(CN2CCN(C(=O)c3cccs3)CC2)c1)c1cccs1 | 0.782 µM | 
11 | COc1ccc(-c2csc(NC(=O)CCC(=O)O)n2)cc1OC | 0.842 µM | 
12 | CS(=O)(=O)CCNCc1ccc(-c2ccc3c(Nc4ccc(Cl)cc4F)ccnc3c2)o1 | 0.668 µM | 
13 | CSC1=NC(=Nc2ccccc2C)C2(CCC(C(C)(C)C)CC2)N1c1ccccc1Cl (stereo not given) | 0.8 µM | 
14 | CCCN1CCN(CCCNC(=O)c2cc3c(-c4ccc(Cl)cc4)nn(C)c3s2)CC1 | 1.1 µM | 
15 | CC(C)C[C@H](NC(=O)c1cc(-c2ccc(F)cc2)no1)C(=O)O.CC(C)C[C@H](NC(=O)c1conc1-c1ccc(F)cc1)C(=O)O | 0.979 µM | 
16 | CCOc1cc(C(=O)NC2CC(C)(C)NC(C)(C)C2)ccc1-c1nc2cc(Cl)ccc2[nH]1 | 0.992 µM | 
17 | CCCCN(CCCC)/C(=N/C(=N)NCc1ccc(Cl)c(Cl)c1)NCCCCCCN/C(=N\C(=N)NCc1ccc(Cl)c(Cl)c1)N(CCCC)CCCC | 0.399 µM | 
18 | COCCn1c(SC(C)C(=O)Nc2cc(C(F)(F)F)ccc2Cl)nc2ccccc2c1=O (stereo not given) | 0.629 µM | 
19 | COc1ccc(C(=O)N2CCC3(CC2)C(=O)N(CC(=O)NCC2CCCCC2)CN3c2ccccc2)cc1 | 0.273 µM | 
20 | Cn1nc(-c2cccc(CN[C@@H]3CCc4ccc(O)cc43)c2)c2cnc(NCCCN3CCCC3)nc21 | 0.831 µM | 
21 | Fc1ccc(N(c2nc(-c3cc(F)cc(C(F)(F)F)c3)cs2)C2CCNCC2)cc1 | 0.956 µM | 
22 | c1ccc(-n2ncc(CNCc3ccc(-c4ccc(-c5nc6ccccc6[nH]5)s4)cc3)n2)cc1 | 1.4 µM | 
23 | CN1CCC(COC(=O)C(O)(c2ccccc2)c2ccccc2)C1 (stereo not given) [TRICLAZATE] | 0.997 µM | 
24 | Cc1nc(-c2cccc(C(=O)NC3CCC(CCN4CCc5ccc(-c6cccnc6)cc5CC4)CC3)c2)no1 (stereo not given) | 0.762 µM | 
25 | OC(CNc1ccnc(Nc2ccc(Cl)cc2)n1)c1cccc(C(F)(F)F)c1 (stereo not given) | 0.676 µM | 

Row | SMILES | XC50 (Plasmodium falciparum, 3D7) | XC50
26 | O=C(NCC1CCN(CCN2CCC(c3cn(CCO)c4ccccc34)CC2)CC1)c1ccc(-c2ccc(C(F)(F)F)cc2)cc1 | 0.438 µM | 
27 | O=c1n[n+](C2CCCCC2)[n-]o1 | 0.934 µM | 
28 | O=[N+]([O-])c1ccccc1C=NN=c1cc[nH]c2ccccc12 | 0.863 µM | 
29 | COc1ccc(-c2ccc(NC(=O)c3ccc(F)cc3)cc2)cc1CNC(C)C | 0.758 µM | 
30 | CCN(c1ccc(O)c(CN2CCCCC2)c1)c1ccc([N+](=O)[O-])cn1 | 0.886 µM | 
31 | COc1ccc(NC(=O)Nc2nc3ccccc3s2)cc1N1CCN(C)CC1 | 0.703 µM | 
32 | CCn1c(-c2nonc2N)nc2cnc(Oc3cccc(NC(=O)c4ccc(OCCN(C(C)C)C(C)C)cc4)c3)cc21 | 0.78 µM | 
33 | COc1cccc(Nc2nccc(-c3c(-c4cccc(NC(=O)c5c(F)cccc5F)c4)nn4ccccc34)n2)c1 | 0.178 µM | 
34 | CN1CCN(c2ccc(CNc3ccc4ncc(-c5ccc(OC(F)(F)F)cc5)n4n3)cc2)CC1 | 0.834 µM | 
35 | C#Cc1cccc(NC(=O)[C@H](CC2CCCCC2)Nc2ccc(C#N)c3ccccc23)c1 | 0.588 µM | 
36 | Cc1cccc(CN2CCC(Oc3ccc(NC(=O)c4cccs4)cc3Cl)CC2)n1 | 0.844 µM | 
37 | Clc1cc(Cl)c2c(c1)C(NCCCNc1nc3ccccc3[nH]1)CCO2 (stereo not given) | 0.325 µM | 
38 | CC(CNC(=O)[C@H]1CNCCN1C(=O)CCCc1ccccc1)c1ccccc1 (stereo not given in full) | 0.915 µM | 
39 | COC(=O)c1ccccc1COc1ccc(CC2(NC(=O)[C@H](Nc3ccc(C#N)c4ccccc34)C(C)(C)C)CCCC2)cc1 | 0.856 µM | 
40 | O=C(NCCCCN1CCC(c2ccc(C(F)(F)F)cc2C(F)(F)F)CC1)c1ccc(NC(=O)c2ccc(Cl)cc2)cc1 | 0.613 µM | 
41 | O=S(=O)(Nc1ccc(-c2ccc(CN3CCCC3)cc2)cc1)c1cccc2cccnc12 | 1.02 µM | 
42 | CCN(CC)CC(O)c1cc(-c2ccc(OC)cc2)nc2cc(Cl)ccc12 (stereo not given) | 0.0671 µM | 
43 | COc1ccc2nccc([C@@H](O)CN3CCC(NCCOc4ccccc4[N+](=O)[O-])CC3)c2c1 | 0.384 µM | 
44 | COc1cc2c(cc1S(=O)(=O)c1ccc(OCc3ccc(Cl)cc3)cc1)CCN(Cc1ccc(NC(C)=O)s1)CC2 | 0.919 µM | 
45 | O=C(Nc1cccc(-c2cccc(-c3nc4ccccc4[nH]3)c2)c1)NC1CC1c1ccccc1 (stereo not given) | 1.07 µM | 0.898 µM
46 | Cc1cc(N2CC=CCC2)nc(NC(=N)Nc2ccc(Cl)cc2)n1 | 0.782 µM | 
47 | O=C(/C=C/c1c(Cl)cccc1Cl)NC1CCC(CN2CCC(c3c[nH]c4ccccc34)CC2)CC1 (stereo not given) |  | 0.814 µM and 0.373 µM
48 | Cn1cnc2c(Nc3ccncc3)nc(-c3ccc4ccccc4c3)nc21 | 0.867 µM | 
49 | COc1ccc2nc3cc(Cl)ccc3c(NCCc3ccccc3)c2c1 | 0.95 µM | 
50 | COc1ccc2ncc(F)c(CCN3CCC(NCc4cnc5c(c4)NC(=O)CS5)CC3)c2c1 | 0.575 µM | 

Row | SMILES | XC50 (Plasmodium falciparum, 3D7) | XC50
51 | Cn1c(NC(=O)CCCCCNC(=O)c2ccc(O)c(-c3ccc(Cl)c(Cl)c3)c2)nc2ccccc21 | 0.726 µM | 
52 | Cc1ccccc1CN1CCCN(Cc2ccc(C(=O)Nc3ccc(Cl)cc3)cc2)CC1 | 0.944 µM | 
53 | Cc1cccc(Nc2nc(N[C@@H]3CCCNC3)nc3cc[nH]c(=O)c23)c1 | 0.683 µM | 
54 | CC(C)(C)OC(=O)N1CCC(C2CCN(C(=O)OC(C)(C)C)CC2)CC1 | 1.16 µM | 
55 | Cc1ccc2nc(-c3ccc(C(=O)NCc4ccc(Cl)c(Cl)c4)cc3)[nH]c2c1C | 0.79 µM | 
56 | CCC[C@@H]([C@@H](CC(C)C)C(=O)N[C@@H](CCCCNC(=O)c1cccc(OC)c1)C(=O)Nc1nccs1)N(O)C=O | 0.104 µM | 
57 | COCC(=O)N(Cc1ccccc1-c1cccc(CNCc2ccc3c(c2)OCO3)c1)C1CCN(Cc2ccccc2)CC1 | 0.842 µM | 
58 | CN1CCN(CCCN(Cc2csc(-c3ccc(CNCc4ccccc4)cc3)n2)C(=O)Nc2cccc(Cl)c2)CC1 | 0.789 µM | 
59 | COc1ccc(Cc2c(C)nc3nc(N)nc(N)c3c2C)cc1OC | 0.912 µM | 
60 | Cc1ccc(NC(=O)c2ccc(-c3cc4cc(Cl)c(Cl)cc4[nH]3)cc2)cc1OCCN1CCCC1 | 0.991 µM | 
61 | N#Cc1ccc(N(CCOc2ccc(Cl)c(Cl)c2)Cc2ccccc2C(F)(F)F)cc1C(F)(F)F | 1.11 µM | 
62 | Cc1ccccc1CNc1noc(-c2c(-c3ccccc3)noc2C)n1 | 0.902 µM | 
63 | OC1(c2ccc(Br)cc2)CCN(C2CCN(Cc3ccccc3)CC2)CC1 | 0.597 µM | 
64 | Cc1cc(OCCCN2CCCCC2)ccc1NC(=O)COc1ccc(Cl)cc1C(=O)c1cc(Cl)cc(C#N)c1 | 0.892 µM | 
65 | CCN(C(=O)c1ccc(NC(=O)c2cccs2)cc1)c1nc2c(C)cccc2s1 | 0.85 µM | 
66 | CC1(CCc2ccccc2)N=C(Nc2ccc(Cl)cc2)N=C(N)C1c1ccc(Cl)c(Cl)c1 (stereo not given) | 0.221 µM | 
67 | COc1ccc(-c2ccc(CNC(=O)c3cccc(C#N)c3)c(F)c2)cc1CN1CCCN(C)CC1 | 0.804 µM | 
68 | C=CCOC(=O)N1CCC(CNCc2cccc(-c3ccc(-c4nc5cc(C(F)(F)F)ccc5[nH]4)cc3)c2)C1 (stereo not given) | 0.146 µM | 
69 | CCCCNC(=O)[C@H](Cc1ccccc1)NC(=O)c1ccc(O)c(-c2ccc(Cl)c(Cl)c2)c1 | 0.527 µM | 
70 | S=c1nc(-c2ccccc2)n2ccsc2n1 | 0.176 µM | 
71 | O=C(Nc1nc(-c2ccccn2)cs1)c1ccc(S(=O)(=O)N2CCc3ccccc32)cc1 | 0.83 µM | 
72 | Cc1ccccc1C1CCN(C2CCC(NC(=O)c3ccc(-c4ccccn4)s3)CC2)CC1 (stereo not given) | 1.18 µM | 
73 | CN(C)CCN(C)Cc1ccc(-c2ccc3c(Nc4ccc(F)cc4Cl)ccnc3c2)o1 | 0.118 µM | 
74 | COc1cc2c(cc1C(F)(F)F)N(C(=O)Nc1cc(F)cc(-c3cccnn3)c1)CC2 | 0.275 µM | 
75 | O=C(NCc1ccc(Cl)c(Cl)c1)c1ccc(-c2nc3ccc(F)cc3[nH]2)cc1 | 1.03 µM | 

Row | SMILES | XC50 (Plasmodium falciparum, 3D7) | XC50
76 | Oc1ccccc1CNC1CCCCC1NCc1ccccc1O (stereo not given) | 0.95 µM | 
77 | O=c1cc(-c2ccc3ccccc3c2)[nH]c2ccccc12 | 1.16 µM | 
78 | Cc1ccc(Nc2nc(N)c3ccccc3n2)cc1 | 0.839 µM | 
79 | Clc1ccccc1OCc1ccccn1 | 0.994 µM | 
80 | CN(C)c1ccc(-c2csc(C(=O)NCC3CCN(Cc4ccc(C(C)(C)C)cc4)C3)c2)cc1 (stereo not given) | 0.986 µM | 
81 | COc1ccc(-c2ccc(NC(=O)c3ccc(C#N)cc3)cc2)cc1CNC(C)C | 0.529 µM | 
82 | COc1ccc2ncc(F)c([C@H](O)CN3CCC(NCc4ccc5c(c4)NC(=O)CO5)CC3)c2c1 | 0.172 µM | 
83 | Cc1cc2c(cc1C(F)(F)F)N(C(=O)Nc1cc(OCCN(C(C)C)C(C)C)cc(C(F)(F)F)c1)CC2 | 0.259 µM | 
84 | CC(C)CNCc1cccc(-c2cccc(CNc3ccc4ncccc4c3)c2)c1 | 0.947 µM | 
85 | Nc1nccc2ccc(-c3cccc(O)c3)cc12 | 0.642 µM | 
86 | c1cc(CNCCc2ccncc2)cc(-c2cccc(-c3nc4ccccc4[nH]3)c2)c1 | 0.146 µM | 
87 | CCOC(=O)N1CCN(C(=O)Nc2ccc(Cl)cc2)CC1 | 1.52 µM | 
88 | CCCCOc1ccc(-c2nc3ccccc3[nH]2)cc1 | 0.865 µM | 
89 | COc1ccc(-c2cc(C(=O)N[C@@H](CC3CCCCC3)C(=O)NCCN3CCCCC3)ccc2O)cc1 | 0.95 µM | 
90 | COc1ccc(NC(=O)c2ccc(-c3cc(NC(=O)c4ccnc(N5CCCC5)c4)ccc3C)s2)cc1N1CCN(C)CC1 | 0.245 µM | 
91 | CCCc1cc(N2CCC(N3CCCC3)CC2)nc(Nc2ccc(OC)cc2)n1 | 0.807 µM | 
92 | OCCN1CCN(C(=S)Nc2ccccc2)CC1 | 0.936 µM | 
93 | CC1(C)NC(N)=NC(=N)N1OCOc1ccc(Cl)cc1 | 0.0046 µM | 
94 | O=C(O)CNCC(O)c1ccccc1 (stereo not given) | 0.184 µM | 
95 | COc1ccc(C=CC(=O)NC2CCC(CN3CCC(c4c[nH]c5ccccc45)CC3)CC2)cc1 (stereo not given) | 0.782 µM | 0.807 µM
96 | CN1CCCN(Cc2cccc(-c3ccc(NC(=O)c4cccc(Cl)c4)cc3)c2)CC1 | 0.927 µM | 
97 | O=C(Nc1ccc2c(c1)CCC2)N[C@H]1CCN(CCCCCNC(=O)C2CC2c2ccc(Cl)c(Cl)c2)C1 (stereo not given in full) | 1.08 µM | 
98 | COc1cc(CNC[C@@H](O)[C@H](Cc2ccccc2)NC(=O)c2cc(C3CCCC3)cc(N3CCCCS3(=O)=O)c2)cc(OC)c1 | 0.704 µM | 
